According to patent US10000486B2 (priority 2012, dated 2018):
Structures can show the parent of a compound that is named as a salt. Where two headings read alike, the source gives them in different places.

Experiments:
[1] = system: Lassa GP-pseudotyped-virus; assay: microbe, parasite or virus in culture; type: cell-based, Lassa fever virus; conditions: Human immunodeficiency virus 1, read-out: Activity (EC50 in μM vs. pseudotyped virus) Lassa
VSVg pseudotyped virus = assay: organism not typed; type: cell-based
Sabiá pseudotyped virus = assay: organism not typed; type: cell-based; conditions: read-out: Activity (EC50 in μM vs. pseudotyped virus) Sabiá
Junín pseudotyped virus = assay: organism not typed; type: cell-based; conditions: read-out: Activity (EC50 in μM vs. pseudotyped virus) Junín
[2] = system: Machupo pseudotyped virus; assay: organism not typed; type: cell-based
[3] = read-out: Activity (EC50 in μM vs. pseudotyped virus) VSVg
[4] = read-out: Activity (EC50 in μM vs. pseudotyped virus) Machupo

| SMILES | EC50 [1] [µM] | EC50 (VSVg pseudotyped virus; [3]) [µM] | EC50 (Sabiá pseudotyped virus) [µM] | EC50 (Junín pseudotyped virus) [µM] | EC50 [2, 4] [µM] | EC50 (VSVg pseudotyped virus; read-out: EC50 (Note 2, VSVg)) [µM] | EC50 ([2]; read-out: EC50 (Note 1, Machupo)) [µM] |
| --- | --- | --- | --- | --- | --- | --- | --- |
| CC(C)(C)Oc1ccc(-n2cnc3cc(/C=C\c4ccc(C(C)(C)C)cc4)ccc32)cc1 [Compound 17, 1-(4-tert-butoxyphenyl)-5-[(Z)-2-(4-tert-butylphenyl)vinyl]benzimidazole] | < 1 | 10 to 50 | < 1 |  |  |  |  |
| CCOc1ccc(-c2c[nH]c3cc(NCc4ccc(CC)cc4)ccc23)cc1 [Compound 64, 3-(4-ethoxyphenyl)-N-[(4-ethylphenyl)-methyl]-1H-indol-6-amine] | < 1 | 10 to 50 |  | < 1 | < 1 |  |  |
| CCOc1ccc(-n2cnc3cc(C#Cc4ccc(CC)cc4)cnc32)cc1 [Compound 26, 3-(4-ethoxyphenyl)-6-[2-(4-ethylphenyl)-ethynyl]imidazo[4,5-b]pyridine] | 1 to 10 | 10 to 50 |  | 1 to 10 | 10 to 50 |  |  |
| CCOc1ccc(-n2cnc3cc(/C=C/c4ccc(OC(F)(F)F)cc4)ccc32)cc1 [Compound 10, 1-(4-ethoxyphenyl)-5-[(E)-2-[4-(trifluoromethoxy)phenyl]vinyl]benzimidazole] | < 1 | > 50 |  | < 1 | 1 to 10 |  |  |
| CC(C)Oc1ccc(-n2cnc3cc(/C=C\c4ccc(C(=O)O)cc4)ccc32)cc1 [Compound 45, 4-[(Z)-2-[1-(4-isopropoxyphenyl)benzimidazol-5-yl]vinyl]benzoic acid] | 10 to 50 | > 50 | 1 to 10 | < 1 | < 1 |  |  |
| CCOc1ccc(-n2cnc3cc(/C=C\c4ccc(C(C)(C)C)cc4)ccc32)nc1 [Compound 21, 5-[(Z)-2-(4-tert-butylphenyl)vinyl]-1-(5-ethoxy-2-pyridyl)benzimidazole hydrochloride] | < 1 | 10 to 50 | < 1 | < 1 | < 1 |  |  |
| CC(C)Oc1ccc(-n2cnc3cc(/C=C\c4ccc(C5(O)CCOCC5)cc4)ccc32)cc1 [Compound 59, 4-[4-[(Z)-2-[1-(4-isopropoxyphenyl)benzimidazol-5-yl]vinyl]phenyl]tetrahydropyran-4-ol] | < 1 | 1 to 10 |  | < 1 | < 1 |  |  |
| CC(C)Oc1ccc(-n2cnc3cc(/C=C\c4ccc(C(C)(C)O)cc4)ccc32)cc1 [Compound 38, 2-[4-[(Z)-2-[1-(4-isopropoxyphenyl)benzimidazol-5-yl]vinyl]phenyl]-propan-2-ol] | < 1 | 1 to 10 |  | < 1 | < 1 |  |  |
| COc1ccc(-n2cnc3cc(OCc4ccc(C(C)C)cc4)ccc32)cc1 [Compound 30, 5-[(4-isopropylphenyl)methoxy]-1-(4-methoxyphenyl)benzimidazole] | < 1 | 10 to 50 |  | < 1 | < 1 |  |  |
| CCOc1ccc(-n2cnc3cc(/C=C\c4ccc(CC)cc4)ccc32)nc1 [Compound 19, 1-(5-ethoxy-2-pyridyl)-5-[(Z)-2-(4-ethylphenyl)vinyl]benzimidazol hydrochloride] | < 1 | 10 to 50 | < 1 | < 1 | < 1 |  |  |
| CCOc1ccc(-n2cnc3cc(/C=C\c4ccc(OC(F)(F)F)cc4)ccc32)cc1 [Compound 11, 1-(4-ethoxyphenyl)-5-[(Z)-2-[4-(trifluoromethoxy)phenyl]vinyl]benzimidazole] | < 1 | 10 to 50 |  | < 1 | < 1 |  |  |
| CCc1ccc(/C=C\c2ccc3c(c2)ncn3-c2ccc(OC(C)(C)C)cc2)cc1 [Compound 15, 1-(4-tert-butoxyphenyl)-5-[(Z)-2-(4-ethylphenyl)-vinyl]benzimidazole] | < 1 | 10 to 50 | < 1 |  |  |  |  |
| CC(C)Oc1ccc(-n2cnc3cc(/C=C\c4ccc(C(C)O)cc4)ccc32)cc1 (centres unmarked) [Compound 51, 1-[4-[(Z)-2-[1-(4-isopropoxyphenyl)benzimidazol-5-yl]vinyl]phenyl]ethanol] | < 1 | 1 to 10 |  | < 1 | < 1 |  |  |
| C=C(C)c1ccc(/C=C\c2ccc3c(c2)ncn3-c2ccc(OC(C)C)cc2)cc1 [Compound 40, 5-[(Z)-2-(4-isopropenylphenyl)-vinyl]-1-(4-isopropoxyphenyl)-benzimidazole] | < 1 | 10 to 50 |  | < 1 | < 1 |  |  |
| CCOc1ccc(-n2cnc3cc(/C=C/c4ccc(C(F)(F)F)cc4)ccc32)cc1 [Compound 12, 1-(4-ethoxyphenyl)-5-[(E)-2-[4-(trifluoromethyl)phenyl]vinyl]benzimidazole] | 10 to 50 |  |  | 10 to 50 |  | 196 | 51 |
| CC(C)Oc1ccc(-n2cnc3cc(C4CC4c4ccc(C(C)(C)C)cc4)ccc32)cc1 (centres unmarked) [Compound 36, 5-[2-(4-tert-butylphenyl)cyclopropyl]-1-(4-isopropoxyphenyl)-benzimidazole] | < 1 | 10 to 50 |  | < 1 | < 1 |  |  |

| SMILES | EC50 [1] [µM] | EC50 (VSVg pseudotyped virus; [3]) [µM] | EC50 (Sabiá pseudotyped virus) [µM] | EC50 (Junín pseudotyped virus) [µM] | EC50 [2, 4] [µM] | EC50 (VSVg pseudotyped virus; read-out: EC50 (Note 2, VSVg)) [µM] | EC50 ([2]; read-out: EC50 (Note 1, Machupo)) [µM] |
| --- | --- | --- | --- | --- | --- | --- | --- |
| CC(C)Oc1ccc(-n2cnc3cc(/C=C\c4ccc(C5(N)CC5)cc4)ccc32)cc1 [Compound 54, 1-[4-[(Z)-2-[1-(4-isopropoxyphenyl)benzimidazol-5-yl]vinyl]phenyl]cyclopropanamine] | < 1 | 10 to 50 |  | < 1 | < 1 |  |  |
| CC(C)Oc1ccc(-n2cnc3cc(/C=C\c4ccc(C(C)(C)F)cc4)ccc32)cc1 [Compound 39, 5-[(Z)-2-[4-(1-fluoro-1-methyl-ethyl)phenyl]vinyl]-1-(4-isopropoxy-phenyl)benzimidazole] | < 1 | 1 to 10 |  | < 1 | < 1 |  |  |
| COC(=O)c1ccc(/C=C\c2ccc3c(c2)ncn3-c2ccc(OC(C)C)cc2)cc1 [Compound 37, methyl 4-[(Z)-2-[1-(4-isopropoxyphenyl)-benzimidazol-5-yl]vinyl]benzoate] | < 1 | 10 to 50 |  | < 1 | < 1 |  |  |
| CC(C)Oc1ccc(-n2cnc3cc(/C=C\c4ccc(C5(O)CC5)cc4)ccc32)cc1 [Compound 48, 1-[4-[(Z)-2-[1-(4-isopropoxyphenyl)benzimidazol-5-yl]vinyl]phenyl]cyclopropanol] | < 1 | 10 to 50 |  | < 1 | < 1 |  |  |
| CCc1ccc(/C=C/c2ccc3c(c2)ncn3-c2ccc(OC(C)C)cc2)cc1 [Compound 8, 5-[(E)-2-(4-ethylphenyl)vinyl]-1-(4-isopropoxyphenyl)-benzimidazole] | < 1 | 10 to 50 |  | < 1 | < 1 |  |  |
| CC(C)Oc1ccc(-n2cnc3cc(/C=C\c4ccc(C(C)(C)N)cc4)ccc32)cc1 [Compound 60, 2-[4-[(Z)-2-[1-(4-isopropoxyphenyl)benzimidazol-5-yl]vinyl]phenyl]propan-2-amine] | < 1 | > 50 |  | < 1 | < 1 |  |  |
| CCOc1ccc(-c2cnc3cc(NCc4ccc(CC)cc4)ccn23)cc1 [Compound 65, 3-(4-ethoxyphenyl)-N-[(4-ethylphenyl)-methyl]imidazo[1,2-a]pyridin-7-amine] | < 1 | 1 to 10 |  | < 1 | < 1 |  |  |
| CCOc1ccc(-n2cnc3cc(CNc4ccc(CC)cc4)ccc32)cc1 [Compound 34, N-[[1-(4-ethoxyphenyl)benzimidazol-5-yl]methyl]-4-ethyl-aniline] | < 1 | 10 to 50 |  | < 1 | < 1 |  |  |
| CCC(C)(O)c1ccc(/C=C\c2ccc3c(c2)ncn3-c2ccc(OC(C)C)cc2)cc1 (centres unmarked) [Compound 50, 2-[4-[(Z)-2-[1-(4-isopropoxyphenyl)benzimidazol-5-yl]vinyl]phenyl]butan-2-ol] | < 1 | 1 to 10 |  | < 1 | < 1 |  |  |
| CCOc1ccc(-n2cnc3cc(/C=C\c4ccc(C(F)(F)F)cc4)ccc32)cc1 [Compound 13] | < 1 | 10 to 50 |  | < 1 | < 1 |  |  |
| CC(C)Oc1ccc(-n2cnc3cc(/C=C\c4ccc(C5(O)CCC5)cc4)ccc32)cc1 [Compound 52, 1-[4-[(Z)-2-[1-(4-isopropoxyphenyl)benzimidazol-5-yl]vinyl]phenyl]cyclobutanol] | < 1 | 1 to 10 |  | < 1 | < 1 |  |  |
| CCOc1ccc(-n2cnc3cc(/C=C\c4ccc(CC)cc4)cnc32)cc1 [Compound 22, 3-(4-ethoxyphenyl)-6-[(Z)-2-(4-ethylphenyl)vinyl]imidazo[4,5-b]pyridine] | < 1 | 10 to 50 |  | < 1 | < 1 |  |  |
| CCOc1ccc(-n2cnc3cc(CCc4ccc(CC)cc4)cnc32)cc1 [Compound 28, 3-(4-ethoxyphenyl)-6-[2-(4-ethylphenyl)-ethyl]imidazo[4,5-b]pyridine] | < 1 | > 50 |  | < 1 | < 1 |  |  |
| CC(C)Oc1ccc(-n2cnc3cc(/C=C\c4ccc(C5(O)CNC5)cc4)ccc32)cc1 [Compound 58, 3-[4-[(Z)-2-[1-(4-isopropoxyphenyl)benzimidazol-5-yl]vinyl]phenyl]azetidin-3-ol] | 1 to 10 | 10 to 50 |  | < 1 | < 1 |  |  |
| CCOc1ccc(-n2cnc3cc(OCc4ccc(CC)cc4)ccc32)cc1 [Compound 29, 1-(4-ethoxyphenyl)-5-[(4-ethylphenyl)-methoxy]benzimidazole] | < 1 | 10 to 50 |  | < 1 | < 1 |  |  |
